Common to all, as to type: cell-based
The test system of assay [1] is RS4;11-BCL-2 F104L cells. The assay is described as follows: Cell proliferation assay, engineered RS4;11 cells stably overexpressing BCL-2 F104L (MTS, 168 h). The following applies: Homo sapiens, read-out: RS4, 11 BCL2-F104L. As to the method: MTS testing kit was purchased from Promega (Madison, Wis., USA). The RPMI-1640, Fetal bovine serum and Penicillin-Streptomycin were purchased from BI (Biological Industries, Beit Haemek, Israel). Puromycin was purchased from Beyotime (shanghai, China). Dimethyl sulfoxide (DMSO) was purchased from Sigma (St. Louis, Mo., USA). RS4;1l-BCL-2 G101V and RS4;11-BCL-2 F104L cells were cultured in RPM11640 supplemented with 1 ug/mL puromycin, 100 U/mL Penicillin-Streptomycin and 10% FBS.
To investigate whether a compound is able to inhibit the activity of BCL-2 mutation in cells, a mechanism-based assay using engineered cell lines stably overexpressing BCL-2 mutation ([…] and […]) was developed. In this assay, the inhibition of BCL-2 mutation was reflected by the inhibition of cell proliferation of RS4;11-BCL-2 G101V and RS4;11-BCL-2 F104L cells. Cells were plated into 96-well plates at optimized cell density (RS4;11-BCL-2 G101V: 5000 cells/well; RS4;11-BCL-2 F104L: 5000 cells/well). Plates were incubated at 37° C., with 5% CO2 for 4 h. Compounds were serially diluted to the final-concentrations of 10000, 3333.3, 1111.1, 370.4, 123.5, 41.2, 13.7, 4.6 and 1.4 nM and added to the plates. Plates were incubated at 37° C., with 5% CO2 for 168 h. 20 μl MTS was added into each well and the plates were incubated at 37° C., with 5% CO2 exactly for 2 h. The absorbance was measured by a microplate reader at 490 nm. IC50 values were calculated using GraphPad Prism 5.0 software.

The test system of assay [2] is Toledo cells. Briefly: Cell proliferation assay, Toledo cells (MTS, 72 h). Particulars: Homo sapiens, Toledo cells, MTS, read-out: Toledo IC50. Put shortly: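 IC50 was derived from 490 nm absorbance after a 2 h MTS step. Before that, compounds at 1.5–10000 nM final (nine points) acted on Toledo cells for 72 h at 37 °C, 5% CO2. Cells were seeded at 30000/well in 10% FBS RPMI-1640 and rested 4 h before dosing.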

In assay [3] the test system is DoHH2 cells. The assay is described as follows: Cell proliferation assay, DoHH2 cells (MTS, 120 h). Particulars: Homo sapiens, DOHH-2. How it is done: MTS testing kit was purchased from Promega (Madison, Wis., USA). The RPMI-1640, Fetal bovine serum and Penicillin-Streptomycin were purchased from BI (Biological Industries, Beit Haemek, Israel). Dimethyl sulfoxide (DMSO) was purchased from Sigma (St. Louis, Mo., USA). DoHH2 (DSMZ catalog #: ACC47) cells were cultured in RPMI-1640 supplemented with Penicillin-Streptomycin and 10% FBS.
To investigate whether a compound is able to inhibit the activity of BCL-2 in cells, a mechanism-based assay using DoHH2 lines was developed. In this assay, the inhibition of BCL-2 was reflected by the inhibition of cell proliferation of DoHH2 cells. Cells were plated into 96-well plates at the optimized cell density of 5000 cells/well. Plates were incubated at 37° C., with 5% CO2 for 4h. Compounds were serially diluted and added to the plates with the final concentrations of 10000, 3333.3, 1111.1, 370.4, 123.5, 41.2, 13.7, 4.6 and 1.5 nM. Plates were incubated at 37° C., with 5% CO2 for 120 h. 20 μl MTS was added into each well and the plates were incubated at 37° C., with 5% CO2 for exactly 2 h. The absorbance was measured by a microplate reader at 490 nm. IC50 was calculated using GraphPad Prism 5.0 software.

Data on ten compounds can be found in patent US20230159527A1, “COMPOUNDS AS BCL-2 INHIBITORS” (Fochon Pharmaceuticals, Ltd., priority 2020, published 2023).

SMILES strings stand for the structures. Where only a bound is given, the exact number is not on record here.

For `CCc1nc2[nH]cc(F)c2cc1Oc1cc(N2CCC3(CC2)CN([C@H]2CCC[C@H]2c2ccccc2C(C)C)C3)ccc1C(=O)NS(=O)(=O)c1cc2c(c([N+](=O)[O-])c1)N[C@@H]([C@H]1CC[C@](C)(O)CC1)CO2` (single isomer, unassigned) [Example D-239, 2-((6-ethyl-3-fluoro-1H-pyrrolo [2,3-b]pyridin-5-yl)oxy)-N-(((S)-3-((1r,4S)-4-hydroxy-4-methylcyclohexyl)-5-nitro-3,4-dihydro-2H-benzo[b][1,4]oxazin-7-yl)sulfonyl)-4-(2-((1S,2S or 1R,2R)-2-(2-isopropylphenyl)cyclopentyl)-2,7-diazaspiro[3.5]nonan-7-yl)benzamide], in assay [1], the IC50 worked out at 5 nM. For `CCc1nc2[nH]cc(F)c2cc1Oc1cc(N2CCC3(CC2)CN([C@H]2CCC[C@H]2c2ccccc2C(C)C)C3)ccc1C(=O)NS(=O)(=O)c1cnc(NC[C@H]2CC[C@](C)(O)CC2)c([N+](=O)[O-])c1` (single isomer, unassigned) [Example A-157, 2-((6-ethyl-3-fluoro-1H-pyrrolo[2,3-b]pyridin-5-yl)oxy)-N-((6-((((1r,4r) 4-hydroxy-4-methylcyclohexyl)methyl)amino)-5-nitropyridin-3-yl)sulfonyl)-4-(2-((1S,2S or 1R,2R)-2-(2-isopropylphenyl)cyclo-pentyl)-2,7-diazaspiro[3.5]nonan-7-yl) benzamide], the IC50 in assay [1] was 23 nM. On the same count and under the same terms, the figure for `CCc1nc2[nH]cc(F)c2cc1Oc1cc(N2CCC3(CC2)CN([C@H]2CCC[C@H]2c2ccccc2C(C)C)C3)ccc1C(=O)NS(=O)(=O)c1ccc(NC[C@H]2CC[C@](C)(O)CC2)c([N+](=O)[O-])c1` (single isomer, unassigned) [Example D-235, 2-((6-ethyl-3-fluoro-1H-pyrrolo [2,3-b]pyridin-5-yl)oxy)-N-((4-(((1r,4r)-4-hydroxy-4-methylcyclohexyl)methyl)amino)-3-nitrophenyl) sulfonyl)-4-(2-((1S,2S or 1R,2R)-2-(2-isopropylphenyl)cyclopentyl)-2,7-diazaspiro[3.5] nonan-7-yl)benzamide] is 10 nM; for `CO[C@@H](C)COc1nc2[nH]cc(F)c2cc1Oc1cc(N2CCC3(CC2)CN([C@H]2CCC[C@H]2c2ccccc2C(C)C)C3)ccc1C(=O)NS(=O)(=O)c1cc2c(c([N+](=O)[O-])c1)N[C@@H]([C@H]1CC[C@](C)(O)CC1)CO2` (single isomer, unassigned) [Example D-241a, 2-((3-fluoro-6-((S)-2-methoxypropoxy)-1H-pyrrolo[2,3-b]pyridin-5-yl)oxy)-N-((S)-3-((1r,4S)-4-hydroxy-4-methylcyclohexyl)-5-nitro-3,4-dihydro-2H-benzo[b][1,4]oxazin-7-yl)sulfonyl)-4-(2-((1S,2S or 1R,2R)-2-(2-isopropylphenyl)cyclopentyl)-2,7-diazaspiro[3.5]nonan-7-yl)benzamide] it is 11 nM; for `CO[C@@H](C)COc1nc2[nH]cc(F)c2cc1Oc1cc(N2CCC3(CC2)CC(N2CCC[C@H]2c2ccccc2C(C)C)C3)ccc1C(=O)NS(=O)(=O)c1cc2c(c([N+](=O)[O-])c1)N[C@@H]([C@H]1CC[C@](C)(O)CC1)CO2` (single isomer, unassigned) [Example D-243a, 2-((3-fluoro-6-((S)-2-methoxypropoxy)-1H-pyrrolo[2,3-b]pyridin-5-yl)oxy)-N-(((S)-3-((1r,4S)-4-hydroxy-4-methylcyclohexyl)-5-nitro-3,4-dihydro-2H-benzo[b][1,4]oxazin-7-yl)sulfonyl)-4-(2-((R or S)-2-(2-isopropylphenyl)pyrrolidin-1-yl)-7-azaspiro[3.5]nonan-7-yl) benzamide] it is 13 nM. Take `CC(C)c1ccccc1[C@@H]1COCCN1C1CC2(CCN(c3ccc(C(=O)NS(=O)(=O)c4cnc(NC[C@H]5CC[C@](C)(O)CC5)c([N+](=O)[O-])c4)c(Oc4cnc5[nH]cc(F)c5c4)c3)CC2)C1` (single isomer, unassigned) [Example A-128, 2-((3-fluoro-1H-pyrrolo[2,3-b]pyridin-5-yl)oxy)-N-((6-((((1r,4r)-4-hydroxy-4-methylcyclohexyl)methyl)amino)-5-nitropyridin-3-yl)sulfonyl)-4-(2-((R or S)-3-(2-isopropylphenyl)morpholino)-7-azaspiro[3.5]nonan-7-yl) benzamide]: the results for the IC50 in assay [2] and in assay [3] were 1 nM and not above 1 nM, respectively.

Take `CC(C)c1ccccc1[C@@H]1CCCN1C1CC2(CCN(c3ccc(C(=O)NS(=O)(=O)c4cc5c(c([N+](=O)[O-])c4)O[C@@H](CN4CCOCC4)CO5)c(Oc4cnc5[nH]ccc5c4)c3)CC2)C1` (single isomer, unassigned) [Example E-35, 2-((1H-pyrrolo [2,3-b]pyridin-5-yl)oxy)-4-(2-((R or S)-2-(2-isopropylphenyl)pyrrolidin-1-yl)-7-azaspiro[3.5]nonan-7-yl)-N-(((S)-2-(morpholinomethyl)-8-nitro-2,3-dihydrobenzo [b][1,4]dioxin-6-yl)sulfonyl) benzamide]: the IC50 in assay [2] is 7 nM; in assay [3] it was not above 1 nM.

Take `CCc1nc2[nH]cc(F)c2cc1Oc1cc(N2CCC3(CC2)CC(N2CCC[C@H]2c2ccccc2C(C)C)C3)ccc1C(=O)NS(=O)(=O)c1cc2c(c([N+](=O)[O-])c1)N[C@@H]([C@H]1CC[C@](C)(O)CC1)CO2` (single isomer, unassigned) [Example D-245, 2-((6-ethyl-3-fluoro-1H-pyrrolo [2,3-b]pyridin-5-yl)oxy)-N-(((S)-3-((1r,4S)-4-hydroxy-4-methylcyclohexyl)-5-nitro-3,4-dihydro-2H-benzo[b][1,4]oxazin-7-yl)sulfonyl)-4-(2-((R or S)-2-(2-isopropylphenyl)pyrrolidin-1-yl)-7-azaspiro[3.5]nonan-7-yl)benzamide]: the IC50 in assay [1] was found to be 15 nM.

On to `CO[C@H](C)COc1nc2[nH]cc(F)c2cc1Oc1cc(N2CCC3(CC2)CC(N2CCC[C@H]2c2ccccc2C(C)C)C3)ccc1C(=O)NS(=O)(=O)c1cc2c(c([N+](=O)[O-])c1)N[C@@H]([C@H]1CC[C@](C)(O)CC1)CO2` (single isomer, unassigned) [Example D-243b, 2-((3-fluoro-6-((R)-2-methoxypropoxy)-1H-pyrrolo[2,3-b]pyridin-5-yl)oxy)-N-(((S)-3-((1r,4S)-4-hydroxy-4-methylcyclohexyl)-5-nitro-3,4-dihydro-2H-benzo[b][1,4]oxazin-7-yl)sulfonyl)-4-(2-((R or S)-2-(2-isopropylphenyl)pyrrolidin-1-yl)-7-azaspiro[3.5]nonan-7-yl) benzamide], for which, in assay [1], the IC50 was 20 nM. Regarding `CO[C@@H](C)COc1nc2[nH]cc(F)c2cc1Oc1cc(N2CCC3(CC2)CN([C@H]2CCC[C@H]2c2ccccc2C(C)C)C3)ccc1C(=O)NS(=O)(=O)c1cnc(NC[C@H]2CC[C@](C)(O)CC2)c([N+](=O)[O-])c1` (single isomer, unassigned) [Example A-155a, 2-((3-fluoro-6-((S)-2-methoxypropoxy)-1H-pyrrolo[2,3-b]pyridin-5-yl)oxy)-N-((6-(((1r,4r)-4-hydroxy-4-methylcyclohexyl)methyl)amino)-5-nitropyridin-3-yl)sulfonyl)-4-(2-((1S,2S or 1R,2R)-2-(2-isopropylphenyl)cyclo-pentyl)-2,7-diazaspiro[3.5]nonan-7-yl) benzamide], the IC50 in assay [1] was determined as 27 nM.
